Measured values reported in patent publication US6277583A, “Affinity labeling libraries and applications thereof” (Conjuchem, Inc., priority 1996, dated 2001).

Target: T1, HSA (Homo sapiens, UniProt P02768)
T1 construct: purchased Sigma A-8673
Assay: Rates of reaction (kinetics of biotinylation) of library members with HSA
Assay type: binding
Procedure: The rates of reaction of four members of the library with HSA were determined, and the kinetics describing the biotinylation of HSA by these members of the library is shown in FIG. 2. The curves all show a characteristic early fast phase of reaction followed by a slowing of the reaction at later times. The maximal rate of reaction is determined by chosing the best straight line fit for the early values of the time course.
Members of the library differ in their structures from that of the thiophenyl ester of biotin in that a pentapeptide with a C- terminus amide is present and the ester function is spatially distinct because its position is on the amino acid side chain of glutamate.

T1 sequence (P02768 25-609): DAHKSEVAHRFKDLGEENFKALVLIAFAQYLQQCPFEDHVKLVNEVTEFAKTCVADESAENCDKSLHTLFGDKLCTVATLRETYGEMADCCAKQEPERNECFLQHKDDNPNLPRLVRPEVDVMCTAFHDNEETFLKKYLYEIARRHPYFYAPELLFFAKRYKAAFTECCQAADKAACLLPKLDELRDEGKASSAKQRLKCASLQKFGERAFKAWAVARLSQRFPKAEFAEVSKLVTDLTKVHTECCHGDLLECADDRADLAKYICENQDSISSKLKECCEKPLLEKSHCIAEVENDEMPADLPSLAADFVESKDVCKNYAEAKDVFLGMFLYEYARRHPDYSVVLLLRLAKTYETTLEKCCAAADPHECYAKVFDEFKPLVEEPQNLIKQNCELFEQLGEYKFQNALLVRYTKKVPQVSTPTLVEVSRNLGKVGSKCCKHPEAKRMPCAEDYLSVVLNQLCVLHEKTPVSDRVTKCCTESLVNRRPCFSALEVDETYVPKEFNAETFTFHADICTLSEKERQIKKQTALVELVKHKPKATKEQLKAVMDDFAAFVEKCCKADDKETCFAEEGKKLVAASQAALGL

With `O=C1NC2CSC(CCCCC(=O)Sc3ccccc3)C2N1` (centres unmarked) [Thiophenyl Biotin, thiophenyl ester of biotin] the Rate (maximal rate of biotinylation of HSA, best straight line fit of early time course (FIG. 2)) was 0.0004-0.002 OD units/min and the “Fold Increase over 80 μM thiophenyl biotin” value (rate of reaction with HSA relative to thiophenyl ester of biotin) was 1 fold.
